The values that follow come from patent US20230310377A1, “METHODS OF TREATING LYSOSOMAL STORAGE DISEASES AND METHODS RELATED THERETO” (RECURSION PHARMACEUTICALS, INC., priority 2020, published 2023).

Holding throughout (assay type): cell-based
The test system of test [1] is Sandhoff (HEXB) disease and Tay-Sachs (HEXA) disease patient fibroblasts. The test is described as follows: GM2 ganglioside accumulation (immunofluorescence) in Sandhoff and Tay-Sachs patient fibroblasts. The conditions noted are these: Homo sapiens, Fibroblast. How it is done:
(§1) Healthy, Sandhoff (HEXB) disease, and Tay-Sachs (HEXA) disease patient fibroblasts were plated and treated with ruboxistaurin mesylate twice over 17 days. At day 0 cells were seeded. On day 5 the media was changed and initial dose of the compound was delivered. On day 10 the media was changed again and the second dose of the compound was delivered. On day 17 the cells were fixed, immunoflourescence-labeled, and imaged for GM2 (see FIG. 1). […] FIGS. 2A-1 and 3A depict the dose response for two separate experiments. FIGS. 2B-1 and 3B depict mean fluorescence or mean aggregate count for each experiment±SEM of technical replicates, combining 3-5 patient lines for each group. n=12-40 images from two well replicates imaged at 4-sites per well for each line at each dose. Data in each panel represents n=1 experiment performed. FIGS. 2C and 3C depict nuclei per image from the same image sets.
(§2) The same experiment was performed for each of sotrastaurin, enzastaurin, LY2090314, AZD1080, and AZD2858. FIG. 2A-2 depicts the dose response for sotrastaurin. FIG. 2A-3 depicts the dose response for enzastaurin.
EC50 calculations were based on GM2 aggregate counts (not mean fluorescence).
The leftmost concentration in all graphs is DMSO control.

Test [2] has as its system Tay-Sachs (HEXA) disease patient fibroblasts. The test is described as follows: GM2 ganglioside accumulation in Tay-Sachs (HEXA) patient fibroblasts. Particulars: Homo sapiens, Fibroblast, read-out: GM2 ganglioside ED50 for HEXA. How it is done:
as §1, §2

The subject of test [3] is Sandhoff (HEXB) disease patient fibroblasts. The test is described as follows: GM2 ganglioside accumulation in Sandhoff (HEXB) patient fibroblasts. Particulars: Homo sapiens, Fibroblast, read-out: GM2 ganglioside ED50 for HEXB. How it is done:
as §1, §2

The subject of test [4] is Sandhoff (HEXB) disease and Tay-Sachs (HEXA) disease patient fibroblasts. The test can be described thus: Mean cytoplasmic autofluorescence in patient fibroblasts. Particulars: Homo sapiens, Fibroblast, experimentally determined, read-out: autofluorescence ED50. Here is the method: as §1
FIGS. 2D-1 and 2D-2 depict mean cytoplasmic autofluorescence for ruboxistaurin and sotrastaurin, respectively.

The mark [5] stands for this setting: GM2 aggregate counts (not mean fluorescence), Expmts 1936 and 1925, read-out: ED50 based on GM2 aggregate counts.
Where [6] appears, read: experimentally determined, patient fibroblasts, read-out: GM2 ganglioside ED50.

As to `N#Cc1ccc2[nH]c(O)c(-c3ccc(CN4CCOCC4)cn3)c2c1` [AZD1080], in test [1] (setting [5]), the EC50 came to 1590 nM. In the case of `Cn1cc(C2=C(c3cn(C4CCN(Cc5ccccn5)CC4)c4ccccc34)C(=O)NC2=O)c2ccccc21` [Enzastaurin], the EC50 in test [2] is around 265 nM; in test [3] it was around 550 nM. Turning to `O=C1NC(=O)C(c2cnc3ccccn23)=C1c1cn2c3c(cc(F)cc13)CN(C(=O)N1CCCCC1)CC2` [LY2090314], the EC50 in test [1] (setting [5]) was found to be 8.76 nM.

As for `CN(C)C[C@@H]1CCn2cc(c3ccccc32)C2=C(C(=O)NC2=O)c2cn(c3ccccc23)CCO1` [Ruboxistaurin, (18S)-18-[(dimethylamino)methyl]-17-oxa-4,14,21-triazahexacyclo[19.6.1.17,14.02,6.08,13.022,27]nonacosa-1(28),2(6),7(29),8,10,12,22,24,26-nonaene-3,5-dione], the EC50 in test [1] (setting [6]) is around 300 nM; in test [4], around 250 nM.

For `CN1CCN(c2nc(C3=C(c4c[nH]c5ccccc45)C(=O)NC3=O)c3ccccc3n2)CC1` [Sotrastaurin], the EC50 in test [1] (setting [6]) is around 90 nM.
